Test results from paper PMC9424906 (Frontiers in Pharmacology, 2022).
“Also recorded” adds a separate entry of the source.

Assays:
OATP1B1 = details: cited from earlier work
in vitro = in vitro ADME, human; details: Sprague-Dawley (rat), CD-1 (mouse), Beagle (dog), monkey
Protocol: Plasma protein binding experiments were carried out in mixed-gender human plasma, male Sprague-Dawley rat plasma, male CD-1 plasma, male Beagle dog plasma, and male Cynomolgus monkey plasma (BioIVT) using a Pierce Rapid Equilibration Dialysis (RED) device. […] Blank phosphate-buffered saline (PBS) (500 μL) was added to each corresponding receiver chamber. After 4 h of incubation (with shaking at 37°C), both sides were aliquoted, and matrix was normalized. Samples were centrifuged at 1000 g for 10 min after adding two volumes of ACN with IS. Supernatants were diluted 1:1 with water and analyzed with LC-MS/MS.
Plasma Protein binding was calculated as follows:
% Bound = [(PARR in Donor–PARR in Receiver)/(PARR in Donor)] × 100.
PARR = peak area response ratio to internal standard, including applicable dilution factors.

MATE2-K = details: cited from earlier work
OAT3 = details: cited from earlier work
[1] = 7-days dose range finding study in monkeys; details: oral, 7 days, 1,000 mg/kg/day
[2] = tested on: EpiAirway human tracheobronchial epithelial tissues
OCT1 = details: cited from earlier work
[3] = tested on: plateable cryopreserved hepatocytes; assay type: in vitro ADME, mouse, rat, dog, monkey, human
Protocol: Plateable cryopreserved hepatocytes from male CD-1 mouse (Lot# DYF, 81.2% viability), male SD rat (Lot# PMD, 88.1% viability), male Beagle dog (Lot# YTK, 90.0% viability), male Cynomolgus monkey (Lot# GJV, 88.7% viability), and male human (Lot# PDC, 82.9% viability) were purchased from BioIVT (Baltimore, MD). Following vendor’s instructions, the hepatocyte vials were thawed in a 37°C water bath and cells were suspended in 5 mL of corresponding plating media (antibiotic added, rodent media for mouse and rat, dog media for dog, and primate media for monkey and human). The cells were manually counted using Trypan Blue method and were diluted to target concentration (0.35 million/mL for mouse and 0.7 million/mL for other species) with plating media. Diluted cells (500 µL) were then added to Collagen-I coated 24-well plate, distributed evenly, and incubated for 4 h for attaching. Media was changed 4 h prior to compound addition.
After 24 and 48 h, the reaction was stopped by adding 3x volumes of cold acetonitrile to the reaction mixture. Samples were vortexed and centrifuged to precipitate proteins. The supernatants were transferred to clean tubes and dried under a stream of N2 for ∼20 min at ambient temperature to remove most of organic solvent. The remaining liquid was dried by lyophilization. […]

ENT4 = ENT4 (Homo sapiens, UniProt Q7RTT9); assay: Nucleoside transporter uptake, ENT4-transfected MDCK cells
CNT2 = molecular target: T1, CNT2 (Homo sapiens, UniProt O43868); assay: Nucleoside transporter uptake, CNT2-transfected MDCK cells; assay type: in vitro ADME; details: for Uptake compared to control cells: CNT2-transfected cells
T1 construct: expressed in transfected cells; host or cells: MDCK-II
T1 sequence (O43868 1-658): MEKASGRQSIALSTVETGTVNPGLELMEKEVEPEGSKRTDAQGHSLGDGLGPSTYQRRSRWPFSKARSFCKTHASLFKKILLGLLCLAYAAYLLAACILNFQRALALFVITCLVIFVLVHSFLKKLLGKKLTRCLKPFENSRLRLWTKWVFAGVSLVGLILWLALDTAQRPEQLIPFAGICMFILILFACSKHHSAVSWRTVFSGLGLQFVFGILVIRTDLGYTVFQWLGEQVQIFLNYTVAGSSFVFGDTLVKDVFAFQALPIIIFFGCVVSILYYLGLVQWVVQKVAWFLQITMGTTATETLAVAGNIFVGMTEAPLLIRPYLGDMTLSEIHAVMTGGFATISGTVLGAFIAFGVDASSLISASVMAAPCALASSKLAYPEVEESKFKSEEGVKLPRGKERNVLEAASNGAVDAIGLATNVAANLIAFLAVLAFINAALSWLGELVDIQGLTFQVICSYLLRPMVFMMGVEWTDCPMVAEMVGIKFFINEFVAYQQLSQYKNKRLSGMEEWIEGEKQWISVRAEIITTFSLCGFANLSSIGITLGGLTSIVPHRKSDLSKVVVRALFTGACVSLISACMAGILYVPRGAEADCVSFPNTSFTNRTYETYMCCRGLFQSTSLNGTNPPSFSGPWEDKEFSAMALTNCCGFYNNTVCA
Description: (§1) Each condition was run in triplicate.

ENT1 = ENT1 (Homo sapiens, UniProt Q99808); assay: Nucleoside transporter uptake, ENT1-transfected MDCK cells
ENT2 = molecular target: T2, ENT2 (Homo sapiens, UniProt Q14542); assay: Nucleoside transporter uptake, ENT2-transfected MDCK cells; assay type: in vitro ADME
T2 construct: expressed in transfected cells; host or cells: MDCK-II
Description: as §1

MDR1 = details: MDCK-MDR1

T2 sequence (Q14542 whole entry): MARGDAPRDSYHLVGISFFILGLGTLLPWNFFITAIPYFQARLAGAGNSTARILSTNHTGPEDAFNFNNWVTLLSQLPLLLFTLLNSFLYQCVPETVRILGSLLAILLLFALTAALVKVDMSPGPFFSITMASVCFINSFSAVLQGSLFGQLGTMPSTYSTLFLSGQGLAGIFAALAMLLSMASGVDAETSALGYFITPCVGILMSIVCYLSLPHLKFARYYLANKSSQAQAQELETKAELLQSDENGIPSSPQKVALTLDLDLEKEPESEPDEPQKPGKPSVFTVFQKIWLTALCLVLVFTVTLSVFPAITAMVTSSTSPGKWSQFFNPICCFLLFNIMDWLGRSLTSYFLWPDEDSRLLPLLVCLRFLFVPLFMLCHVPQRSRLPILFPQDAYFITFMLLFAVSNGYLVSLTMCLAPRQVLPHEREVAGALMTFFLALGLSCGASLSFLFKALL
ENT1, sequence (Q99808 whole entry): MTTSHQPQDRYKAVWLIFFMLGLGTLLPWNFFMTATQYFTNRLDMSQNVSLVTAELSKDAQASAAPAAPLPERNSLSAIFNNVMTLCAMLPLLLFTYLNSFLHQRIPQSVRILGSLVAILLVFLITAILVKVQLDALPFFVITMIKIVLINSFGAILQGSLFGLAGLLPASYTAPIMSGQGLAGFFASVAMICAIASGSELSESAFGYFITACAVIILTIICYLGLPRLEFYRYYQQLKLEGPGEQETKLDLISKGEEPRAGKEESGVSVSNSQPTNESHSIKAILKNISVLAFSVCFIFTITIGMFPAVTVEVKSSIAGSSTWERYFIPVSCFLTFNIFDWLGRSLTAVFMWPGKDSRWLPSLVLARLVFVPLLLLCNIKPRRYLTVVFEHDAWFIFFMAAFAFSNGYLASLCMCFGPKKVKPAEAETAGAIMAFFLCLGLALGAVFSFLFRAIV
ENT4, sequence (Q7RTT9 whole entry): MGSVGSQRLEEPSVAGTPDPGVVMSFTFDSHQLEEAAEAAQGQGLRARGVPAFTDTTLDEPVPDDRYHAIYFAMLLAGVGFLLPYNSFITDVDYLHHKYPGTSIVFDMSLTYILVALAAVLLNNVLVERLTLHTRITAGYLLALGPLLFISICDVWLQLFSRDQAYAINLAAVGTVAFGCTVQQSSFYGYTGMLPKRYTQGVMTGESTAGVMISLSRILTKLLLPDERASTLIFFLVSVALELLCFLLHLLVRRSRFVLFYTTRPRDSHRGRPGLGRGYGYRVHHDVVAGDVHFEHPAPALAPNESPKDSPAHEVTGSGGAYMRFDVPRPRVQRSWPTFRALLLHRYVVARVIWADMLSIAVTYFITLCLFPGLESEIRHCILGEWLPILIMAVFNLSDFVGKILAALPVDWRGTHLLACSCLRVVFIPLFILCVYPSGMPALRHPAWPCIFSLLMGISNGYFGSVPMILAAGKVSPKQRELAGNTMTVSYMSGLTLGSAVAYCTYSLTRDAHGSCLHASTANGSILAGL

**Q.** For `N#C[C@@]1(c2ccc3c(N)ncnn23)O[C@H](CO)[C@@H](O)[C@H]1O` [GS-441524], which “Substrate of OATP1B1” value (OATP1B1) is on record?
**A.** not a substrate

**Q.** What about the fraction unbound at 4 h, 10 µM (in vitro; both (human, mixed-gender), male (animals), human) of the same compound?
**A.** 0.62 to 0.78

**Q.** What about the fraction unbound at 4 h, 10 µM (in vitro; male, plasma) of the same compound?
**A.** 0.62 to 0.64

**Q.** And the “Substrate of MATE2-K” value (MATE2-K)?
**A.** not a substrate

**Q.** What about the “Substrate of OAT3” value (OAT3) of the same compound?
**A.** not a substrate

**Q.** What about the “Tolerability at maximum feasible dose” value [1] of the same compound?
**A.** well tolerated

**Q.** And the Cytotoxicity [2]?
**A.** did not exhibit any cytotoxicity

**Q.** What about the “Substrate of OCT1” value (OCT1) of the same compound?
**A.** not a substrate

**Q.** And the “Glucuronidation and sulfation metabolites in plateable hepatocytes” value [3]?
**A.** detected at trace amount

**Q.** And the “Phosphorylated metabolites in plateable hepatocytes” value [3]?
**A.** no detectable phosphorylated metabolites

**Q.** And the “Difference in uptake compared to control cells” value (ENT4)?
**A.** less than 2 fold

**Q.** And the “Substrate of CNT2” value (CNT2)?
**A.** not a substrate; also recorded: unlikely to be a substrate

**Q.** What about the “Uptake compared to control cells” value (CNT2; 10 µM) of the same compound?
**A.** higher than 2 fold

**Q.** What about the “Uptake compared to control cells” value (CNT2; 30 and 100 µM) of the same compound?
**A.** less than 2 fold

**Q.** And the “Inhibition of uptake by reference inhibitor” value (ENT1; ENT1-transfected cells, reference inhibitor NBMPR, 30 µM GS-441524)?
**A.** 92.3%

**Q.** And the “Substrate of ENT1” value (ENT1; MDCK)?
**A.** substrate

**Q.** What about the “Substrate of ENT2” value (ENT2) of the same compound?
**A.** substrate

**Q.** What about the “Inhibition of uptake by reference inhibitor” value (ENT2; ENT2-transfected cells, 100 µM adenosine) of the same compound?
**A.** did not inhibit; also recorded: no inhibition was observed

**Q.** And the “Substrate of MDR1” value (MDR1)?
**A.** substrate
